Data on one molecule can be found in patent US20260258000A1, “THYMIDYLATE SYNTHASE INHIBITORS AND USES THEREOF” (University of Florida Research Foundation, Incorporated, priority 2021, published 2026).

One series deals with T1, human TS (Homo sapiens, UniProt P04818).
T1 construct: 6xHis (N); made in house; host or cells: E. coli BL21 (DE3)
In words: Competitive drug displacement assay (tritium TS assay). The class given is biochemical. The conditions noted are these: TS pre-incubated with drug. The procedure:
For these experiments the TS protein was first incubated with each drug, the reaction was then initiated by addition of 5,10-mTHF and dUMP using different concentrations of either 5,10-mTHF or dUMP to change the substrate:drug ratio. If there was competition between one of the substrates and the drug for the same binding site, increasing the substrate concentration will displace more of the pre-bound drug and shift the equilibrium towards the enzyme: substrate complex, thus allowing the conversion of dUMP to proceed (FIG. 5A).
The competitive drug displacement assay utilized the standard reaction conditions for the tritium based TS catalytic activity assay including 40 μM dUMP (Sigma Aldrich, D3876) with the [5-3H]dUMP tracer (ViTrax, VT122) accounting for 0.06% of the final dUMP concentration and 100 μM 5,10-methylene tetrahydrofolate (defined as 1× dUMP and 1×5,10-mTHF). Concentrations of total dUMP and 5,10-mTHF were then changed relative to these 1× concentrations to concisely indicate the changes in either the substrate or cofactor concentration. […] The remaining components in each 200 μL reaction were consistent in all reactions and included 2 μg of purified human TS in 50 mM KH2PO4 (Sigma Aldrich, P0662) and 100 mM β-mercaptoethanol (Sigma Aldrich, M7522).

Another series deals with CM cells. The experiment in a line: Cell viability (MTS) assay, CM. In kind it is cell-based. Conditions: 72 hour drug incubation (FIG. 1C).
For series [1], the system named is H1048, CM, MIA PaCa-2, PANC-1 and Luc-PANC-1 cancer cell lines. In words: Viability assay screen in a panel of cancer cell lines. The class given is cell-based. Conditions: 10 uM, 72 hours (FIG. 8). The procedure: Viability assay performed in a panel of cancer cell lines including H1048 (small cell lung cancer), CM (pancreatic neuroendocrine tumor), MIA PaCa-2 and PANC-1 (pancreatic ductal adenocarcinoma), Luc-PANC-1 (pancreatic ductal adenocarcinoma cells expressing firefly luciferase). Initial viability assay screens were performed with single drug concentration (10 μM) or DMSO control (0.25%). […] The threshold of 10 μM was selected since compounds showing under 50% viability at 10 μM would indicate greater cytotoxicity than disclosed TS inhibitor 5-FU and present a promising lead candidate for further study.
To identify potential TS small molecule inhibitors, molecular docking was used to computationally screen compounds with the ability to bind TS. The details of the procedure are presented in the Methods section. The top ranked 26 compounds were acquired and designated 1-A through 26-Z, then used to determine the cytotoxicity at a 10 uM concentration in several cancer cell lines. […] This initial computational screen provided a predictive model that allowed a preliminary assessment for possible drug candidates. Subsequent experiments were pursued to validate biological activity and to define mechanisms for TS inhibition.

Another series deals with BON cells. The experiment in a line: Cell viability (MTS) assay, BON. In kind it is cell-based. The conditions noted are these: 72 hour drug incubation (FIG. 1C).
The next series has as its system MIA PaCa-2 cells. The experiment in a line: Cell viability (MTS) assay, MIA PaCa-2. The class given is cell-based. The conditions noted are these: Homo sapiens, MIA PaCa-2, 72 h. The procedure: To prepare lysates, 0.5×10^6 PA NC-1 cells were seeded in 100 mm dishes in 10 ml DMEM High glucose and 24 hours later, 5-FU (Sigma) or 19-S were added at the specified concentrations. Cells were harvested after 72 hours and cell pellets were stored at −80° C. For GI50 determination, 3000 MIA PaCa-2 cells. […] After 72 hours, cell viability was assessed by reduction of MTS ((3-4,5-dimethylthiazol-2-yl)-5-(3-carboxymethoxyphenol)-2-(4-sulfophenyl)-2H-tetrazolium) using Cell Titer 96 R Aqueous One Solution Cell Proliferation Assay Kit (Promega), following manufacturer's recommendations. Chemiluminescent output (integration time 1000 ms) was measured on a SpectraMax M3® (Molecular devices). Data were normalized to max/minutes and plotted in GraphPad Prism for GI50 determination. Chemical synthesis details, including characterization of each compound, can be found in the supporting information document associated with this publication.

Series [2] concerns Luc-PANC-1 xenograft tumors. In words: Luc-PANC-1 subcutaneous xenograft tumor model. In kind it is in vivo, NSG mice. Conditions: for median survival: control 54 days. On the procedure:
Luc-PANC-1 (5×106) and Luc-CM (0.5×106) cells were resuspended in 200 ul of PBS and injected subcutaneously (SQ) or intraperitonially (IP) to 6-8-week-old NSG mice respectively. Tumor bearing mice were imaged using Xenogen IVIS® Lumina Bioluminescence Imaging System (Perkin Elmer) every week after cell injection. At 4 weeks, animals were randomized based on slope of luciferase signal and treatment was initiated. […] For all animals body weight was recorded weekly and Luc-PANC-1 tumor volume was measured weekly with a caliper. For scheduled sacrifice experiments, animals were euthanized after 4 weeks of treatment. […] Harvested tumors were excised and weighted, and fixed in alcoholic formalin (67.5% Ethanol, 10% Formaldehyde 37%, 22.5% water) for pathology analysis. Tumor volume was calculated as [volume=0.52 (length×width2)].
From this stock, the exact volume needed for daily in vivo delivery was then formulated into 95% corn oil (Mazola) at 2 different concentrations: 1.25 mg/mi (formulation 1) and 3.125 mg/ml (formulation 2). To determine the volume of solution administered to the mice, 200 μl (maximum volume to be delivered in mice via IP or oral gavage) was divided by 25 g of mouse body weight. Therefore, 8 μl of formulation 1 or 2 multiplied by the weight of the mice were used to reach a dose of 10 or 25 mg/kg of body weight, respectively.
Prior to bioluminescence imaging the region where tumors were located was shaved. Mice were then anesthetized with 2.5% isoflurane in 02 then administered the D-luciferin substrate (150 mg/kg in PBS) by IP injection. Following the injection of the D-luciferin substrate mice were imaged using the Xenogen IVIS® Lumina Bioluminescence Imaging System (Perkin Elmer). The peak of luciferase photon flux was recorded 6 minutes after injection of the D-luciferin substrate. The total photon flux was analyzed and restricted to tumor ROI (region of interest) using Living Image v2.60.1 software (Imaging Systems).

T1 sequence (P04818 whole entry): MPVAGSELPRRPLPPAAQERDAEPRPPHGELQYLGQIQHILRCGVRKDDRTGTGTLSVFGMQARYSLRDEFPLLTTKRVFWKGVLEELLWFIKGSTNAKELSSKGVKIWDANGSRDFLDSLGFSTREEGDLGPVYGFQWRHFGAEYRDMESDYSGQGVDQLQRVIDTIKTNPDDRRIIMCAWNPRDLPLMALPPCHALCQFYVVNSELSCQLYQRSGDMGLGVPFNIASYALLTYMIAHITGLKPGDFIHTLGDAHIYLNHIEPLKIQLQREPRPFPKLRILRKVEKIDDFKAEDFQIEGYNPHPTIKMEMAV

In general, GI50 refers to the concentration giving 50% growth inhibition. Usually IC50 stands for the concentration that inhibits the measured activity by half. Low readings indicate higher potency, high ones lower potency. On to `CCc1nc(N)nc(N)c1-c1ccc(N(C)Cc2ccccc2)c([N+](=O)[O-])c1` [Compound 19-S], for which the “dUMP conversion with increasing 5,10-mTHF concentration (drug displacement)” value on human TS (5,10-mTHF up to 5×) was “increased the amount of dUMP conversion”. On human TS (dUMP up to 5×), the “dUMP conversion with increasing dUMP concentration (drug displacement)” value is on record as “the amount of dUMP conversion did not increase”. The GI50 with CM cells was 0.095 µM; with MIA PaCa-2 cells (MIA PaCa-2, 72-hour treatment, highest concentration 350 μM (FIG. 4E)), 0.2 to 0.84 µM; in the series on MIA PaCa-2 cells (MIA PaCa-2, 72 hour drug incubation (FIG. 1C)), 1.26 µM. Further, the “cytotoxicity (viability)” value in series [1] is listed as “exhibited cytotoxicity in the 5 cell lines examined”. Further, the midpoint of inhibition with BON cells, the IC50, lay at 0.12 µM. The median survival was 68 days in series [2] (10 mg/kg PO until survival endpoint) and 84 days in series [2] (25 mg/kg PO until survival endpoint). Also, the body weight result in series [2] (25 mg/kg IP, 4 cycles, vs vehicle) was “no significant deviations”; in series [2] (10 or 25 mg/kg PO, survival study, vs vehicle) it was “no significant differences”. Besides, the final tumor mass result in series [2] (25 mg/kg IP, 4 cycles, p=0.0029 vs vehicle) is given as “significantly reduced”. Moreover, the “tumor progression (bioluminescence photon flux, tumor volume)” value in series [2] (25 mg/kg IP, 5 days on/2 days rest, 4 cycles, p=0.0023 flux, p<0.0001 volume vs vehicle) is given as “inhibited tumor progression”. The “adverse effects / body weight” value in series [2] (25 mg/kg oral gavage, 4 cycles) is “did not show adverse effects or declines in body weight”. In addition, the “tumor progression (photon flux, tumor volume, excised tumor mass)” value in series [2] (25 mg/kg oral gavage, 4 cycles (FIGS. 7A-7H)) is “inhibited tumor progression”. Besides, in series [2] (10 or 25 mg/kg PO (either dose), Kaplan-Meier), the “survival compared to vehicle control” value was “statistically significant (p=0.0027) prolonged survival”. For the same molecule, in series [2] (10 or 25 mg/kg PO, at 6 weeks after cell injection, vs vehicle), the “total flux (bioluminescence)” value is “significant reduction of total flux”. Also, the tumor volume entry in series [2] (10 or 25 mg/kg PO, p=0.0079, maintained till endpoint) is “significant inhibition of tumor volume”.
